Converted amounts (≈) assume the structure as drawn.

For this experiment, the system named is S. aureus. Nature of the experiment: Minimum inhibitory concentrations (MICs) for S. aureus of exemplary compounds (Table 2). In kind it is cell-based. To be noted: minimum inhibitory concentrations for S. aureus; for MIC: Staphylococcus aureus, read-out: MICs. In short, it runs like this: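 MICs (μg/mL) against S. aureus come from microtiter-tray dilution susceptibility testing per NCCLS M7-A5, comparing growth with and without compound.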

For `CC(=O)NC[C@H]1CN(c2ccc(-c3ccc(CNCc4c(CO)cnc(C)c4O)cc3)c(F)c2)C(=O)O1` [Compound 4095, N-[3-(2-Fluoro-4′-{[(3-hydroxy-5-hydroxymethyl-2-methyl-pyridin-4-ylmethyl)-amino]-methyl}-biphenyl-4-yl)-2-oxo-oxazolidin-5-(S)-ylmethyl]-acetamide], the MIC stood at 4 µg/mL (≈ 7.87 µM).
Still for that read-out and setting: the value for `CC(=O)NC[C@H]1CN(c2ccc(-c3ccc(C(=O)NCc4nccs4)cc3)c(F)c2)C(=O)O1` [Compound 4143, 4′-[5-(S)-(Acetylamino-methyl)-2-oxo-oxazolidin-3-yl]-2′-fluoro-biphenyl-4-carboxylic acid (thiazol-2-ylmethyl)-amide] was 1 µg/mL (≈ 2.13 µM); that for `CC(=O)NC[C@H]1CN(c2ccc(-c3ccc(CNCc4cnn[nH]4)cc3)c(F)c2)C(=O)O1` [Compound 4267, N-[3-(2-Fluoro-4′-{[(3H-[1,2,3]triazol-4-ylmethyl)-amino]-methyl}-biphenyl-4-yl)-2-oxo-oxazolidin-5-(S)-ylmethyl]-acetamide] was 0.25 µg/mL (≈ 0.57 µM); that for `CC(=O)NC[C@H]1CN(c2ccc(-c3ccc(CNCc4ccoc4)cn3)c(F)c2)C(=O)O1` [Compound 4053, N-{3-[3-Fluoro-4-(5-{[(furan-3-ylmethyl)-amino]-methyl}-pyridin-2-yl)-phenyl]-2-oxo-oxazolidin-5-(S)-ylmethyl}-acetamide] was 4 µg/mL (≈ 9.12 µM).
The same measure, in the same setting: as for `CC(=O)NC[C@H]1CN(c2ccc(-c3ccc(CS(=O)(=O)Cc4ccncc4)cc3)c(F)c2)C(=O)O1` [Compound 4214, N-{3-[2-Fluoro-4′-(pyridin-4-ylmethanesulfonylmethyl)-biphenyl-4-yl]-2-oxo-oxazolidin-5-(S)-ylmethyl}-acetamide], the figure is 1 µg/mL (≈ 2.01 µM).
The same measure, in the same setting: as for `CC(=O)NC[C@H]1CN(c2ccc(-c3ccc(C(=O)NCc4ccccn4)nc3)c(F)c2)C(=O)O1` [Compound 4187, 5-{4-[5-(S)-(Acetylamino-methyl)-2-oxo-oxazolidin-3-yl]-2-fluoro-phenyl}-pyridine-2-carboxylic acid (pyridin-2-ylmethyl)-amide], the figure is 1 µg/mL (≈ 2.16 µM); as for `CC(=O)NC[C@H]1CN(c2ccc(-c3ccc(CNCc4[nH]nnc4C)cc3)c(F)c2)C(=O)O1` [Compound 4269, N-[3-(2-Fluoro-4′-{[(5-methyl-3H-[1,2,3]triazol-4-ylmethyl)-amino]-methyl}-biphenyl-4-yl)-2-oxo-oxazolidin-5-(S)-ylmethyl]-acetamide], 2 µg/mL (≈ 4.42 µM).
`CC(=O)NC[C@H]1CN(c2ccc(-c3ccc(C(CO)NCc4csnn4)cc3)c(F)c2)C(=O)O1` (mixture of isomers) [Compound 4172, N-[3-(2-Fluoro-4′-{2-hydroxy-1-[([1,2,3]thiadiazol-4-(R/S)-ylmethyl)-amino]-ethyl}-biphenyl-4-yl)-2-oxo-oxazolidin-5-(S)-ylmethyl]-acetamide] had an MICs of 8 µg/mL.
As for `CC(=O)NC[C@H]1CN(c2ccc(-c3ccc(CN4CCCO4)cc3)c(F)c2)C(=O)O1` [Compound 1112, N-[3-(2-Fluoro-4′-isoxazolidin-2-ylmethyl-biphenyl-4-yl)-2-oxo-oxazolidin-5-(S)-ylmethyl]-acetamide], the MIC stood at 1 µg/mL (≈ 2.42 µM).
The same measure, in the same setting: as for `CC(=O)NC[C@H]1CN(c2ccc(-c3ccc(CNC(C)c4ccncc4)cc3)c(F)c2)C(=O)O1` (mixture of isomers) [Compound 4159, N-(3-{2-Fluoro-4′-[(1-pyridin-4-(R/S)-yl-ethylamino)-methyl]-biphenyl-4-yl}-2-oxo-oxazolidin-5-(S)-ylmethyl)-acetamide], the figure is 2 µg/mL (≈ 4.32 µM).
The same measure, in the same setting: the value for `CC(=O)NC[C@H]1CN(c2ccc(-c3ccc(CNCc4ccncc4)cc3)c(F)c2)C(=O)O1` [Compound 4018, N-[3-(2-Fluoro-4′-{[(pyridin-4-ylmethyl)-amino]-methyl}-biphenyl-4-yl)-2-oxo-oxazolidin-5-(S)-ylmethyl]-acetamide] was 1 µg/mL (≈ 2.23 µM).
Still for that read-out and setting: the value for `CC(=O)NC[C@H]1CC(c2ccc(-c3ccc(CNC(=O)c4ccccc4C(=O)O)cc3)cc2)=NO1` [Compound 4106, N-{4′-[5-(R)-(Acetylamino-methyl)-4,5-dihydro-isoxazol-3-yl]-biphenyl-4-ylmethyl}-phthalamic acid] was 128 µg/mL (≈ 271 µM).
